According to patent US10035818B2, “Polyethylene glycol based prodrug of adrenomedullin and use thereof” (Bayer Pharma Aktiengesellschaft, priority 2011, dated 2018):
Blank lines part the entries; values can stand above or below the molecule they belong to. Where no end group is shown, it is not given here. Side-chain parts run from the residue outwards. Dab = NCC[C@H](N)C(=O)O

What was measured:
Göttingen minipigs [1] = experiment: Acute lung injury in mini pigs induced by oleic acid infusion; format: in vivo
Description: (§1) Acute lung injury is induced in anesthetized mini pigs by use of lipopolysaccharide (LPS) or oleic acid as challenges. In detail: female Göttingen minipigs of ca. 3.5 to 5.5 kg body weight (Ellegaard, Denmark) are kept anesthetized by an continuous i.v.-infusion of Ketavet®, Dormicum® and Pancuronium® after premedication with an intramuscular injection of Ketavet®/Stresnil®. After intratracheal intubation animals are artificially ventilated using a pediatric respirator (Sulla 808V; Dräger, Germany) with an oxygen air mixture at a tidal volume of 30 to 50 ml and constant frequency of 25 min^−1. Arterial PaCO2 is adjusted to about 40 mmHg by […]. […] Cellular content of BALF is determined by use of a blood cell counter (Cell DYN 3700). […]

Göttingen minipigs [2] = experiment: Acute lung injury in mini pigs induced by intratracheal LPS; format: in vivo
Description: as §1

normotensive Wistar rats = experiment: Blood pressure and heart rate in telemetered, normotensive Wistar rats; format: in vivo
Description: The cardiovascular effects induced by compounds according to the invention are investigated in freely moving conscious female Wistar rats (body weight>200 g) by radiotelemetric measurement of blood pressure and heart rate. Briefly, the telemetric system (DSI Data Science International, MN, USA) is composed on 3 basic elements: implantable transmitters (TA11PA-C40), receivers (RA1010) and a computer-based acquisition software (Dataquest™ A.R.T. 4.1 for Windows). Rats are instrumented with pressure implants for chronic use at least 14 days prior to the experiments. The sensor catheter is tied with 4-0 suture several times to produce a stopper 0.5 cm from the tip of the catheter. During catheter implantation rats are anesthetized with pentobabital (Nembutal, Sanofi: 50 mg/kg i.p.). After shaving the abdominal skin, a midline abdominal incision is made, and the fluid-filled sensor catheter is inserted upstream into the exposed descending aorta between the iliac bifurcation and the renal arteries. The catheter is tied several times at the stopper. The tip of the telemetric catheter is located just caudal to the renal arteries and secured by tissue adhesive. The transmitter body is affixed to the inner peritoneal wall before closure of abdomen. A two-layer closure of the abdominal incision is used, with individual suturing of the peritoneum and the muscle wall followed by closure of the outer skin. For postsurgical protection against infections and pain a single dosage of an antibiotic (Oxytetracyclin 10% R, 5.0 ml/kg s.c., beta-pharma GmbH&Co, Germany) and analgesic is injected (Rimadyl R, 5.0 ml/kg s.c., Pfizer, Germany). The hardware configuration is equipped for 24 animals. Each rat cage is positioned on top of an individual receiver platform. After activation of the implanted transmitters, an on-line data acquisition system, samples data and converts telemetric pressure signals to mm Hg. A barometric pressure reference allows for relation of absolute pressure (relative to vacuum) to ambient atmospheric pressure. […]

[3] = biological target: T1, human adrenomedullin-receptor (Homo sapiens, UniProt O60895+Q16602); experiment: Recombinant adrenomedullin-receptor reporter cell (CHO, aequorin luminescence); format: cell-based; settings: before incubation; read-out: EC50 T = 0 h
T1 construct: expressed in transfected cells; host or cells: CHO (Chinese hamster ovary) aequorin reporter cell line
T1 sequence (Q16602 23-461): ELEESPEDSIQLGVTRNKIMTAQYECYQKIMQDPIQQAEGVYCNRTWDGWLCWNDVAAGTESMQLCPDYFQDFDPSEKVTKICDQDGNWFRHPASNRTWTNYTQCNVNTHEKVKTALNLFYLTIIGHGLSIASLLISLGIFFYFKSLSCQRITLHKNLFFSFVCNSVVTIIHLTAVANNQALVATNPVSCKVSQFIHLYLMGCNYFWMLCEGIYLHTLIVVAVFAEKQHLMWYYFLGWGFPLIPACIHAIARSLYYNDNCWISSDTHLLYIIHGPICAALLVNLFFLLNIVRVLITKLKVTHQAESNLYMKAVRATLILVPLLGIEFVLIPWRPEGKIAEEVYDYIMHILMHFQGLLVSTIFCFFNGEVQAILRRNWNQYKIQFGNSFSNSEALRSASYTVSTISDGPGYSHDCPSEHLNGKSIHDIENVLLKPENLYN
T1 sequence (O60895 43-175): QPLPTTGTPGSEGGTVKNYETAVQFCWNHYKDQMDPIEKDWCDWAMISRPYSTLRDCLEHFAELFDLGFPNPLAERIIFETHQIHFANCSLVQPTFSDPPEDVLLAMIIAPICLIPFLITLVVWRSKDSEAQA
Description: Activation of the receptor by ligands can be measured by aequorin luminescence. Construction of the cell line and measurement procedure has been described in detail [Wunder F., Rebmann A., Geerts A, and Kalthof B., Mol Pharmacol, 73, 1235-1243 (2008)]. In brief: Cells are seeded on opaque 384-well microtiter plates at a density of 4000 cells/well and are grown for […]. After removal of culture medium, cells are loaded for 3 h with 0.6 μg/ml coelenterazine in Ca^2+-free Tyrode solution (130 mM sodium chloride, 5 mM potassium chloride, 20 mM HEPES (4-(2-hydroxyethyl)-1-piperazineethanesulfonic acid), 1 mM magnesium chloride, and 4.8 mM sodium hydrogen carbonate, pH 7.4) supplemented with 0.2 mM 3-Isobutyl-1-methylxanthine (IBMX) in a cell culture incubator. Compounds are added for 6 min in calcium^2+-free Tyrode solution containing 0.1% bovine serum albumin. Immediately before adding calcium^2+ to a final concentration of 3 mM measurement of the aequorin luminescence is started by use of a suitable luminometer. Luminescence is measured for 60 s.

Molecule: O-{[(3 S)-3-Amino-4-({(2R)-1-amino-3-[(2,5-dioxo-1-{3-oxo-3-[(2-{ω-methoxy-poly-oxyethylen[40 kDa]}ethyl)amino]propyl}pyrrolidin-3-yl)sulfanyl]-1-oxopropan-2-yl}amino)-4-oxobutyl]carbamoyl}-L-tyrosyl-adrenomedullin(2-52) (Y([Dab-Cys‑NH2-succinimide-PEG 40 kDa])RQSMNNFQGLRSFGCRFGTCTVQKLAHQIYQFTDKDKDNVAPRSKISPQGY; cysteine pairing not given here; also: PEG 40 kDa prodrug linker attached by carbamate to Tyr1 phenol O; UniProt P35318 95-146, looked up) [Example 1, PEG 40 kDa based prodrug of adrenomedullin]
oleic acid induced changes (PAP, EVLWI, PaO2/FiO2) (Göttingen minipigs [1]; administration 15 min before start of the OA infusion): ameliorated or prevented
doses found to be active (Göttingen minipigs [1]; as referred to the peptide component, oleic acid protocol): ≤ 30 μg/kg body weight
doses found to be active (Göttingen minipigs [2]; as referred to the peptide component, LPS protocol): ≤ 30 μg/kg body weight
LPS induced changes (PAP, EVWLI, PaO2/FiO2, cellular content of BALF) (Göttingen minipigs [2]; i.v.-bolus 15 min before the LPS challenge): ameliorated or prevented

Molecule: CC[C@H](C)[C@H](NC(=O)[C@H](CCC(N)=O)NC(=O)[C@H](Cc1c[nH]cn1)NC(=O)[C@H](C)NC(=O)[C@H](CC(C)C)NC(=O)[C@H](CCCCN)NC(=O)[C@H](CCC(N)=O)NC(=O)[C@@H](NC(=O)[C@@H](NC(=O)[C@@H]1CSSC[C@H](NC(=O)CNC(=O)[C@H](Cc2ccccc2)NC(=O)[C@H](CO)NC(=O)[C@H](CCCNC(=N)N)NC(=O)[C@H](CC(C)C)NC(=O)CNC(=O)[C@H](CCC(N)=O)NC(=O)[C@H](Cc2ccccc2)NC(=O)[C@H](CC(N)=O)NC(=O)[C@H](CC(N)=O)NC(=O)[C@H](CCSC)NC(=O)[C@H](CO)NC(=O)[C@H](CCC(N)=O)NC(=O)[C@H](CCCNC(=N)N)NC(=O)[C@@H](N)Cc2ccc(O)cc2)C(=O)N[C@@H](CCCNC(=N)N)C(=O)N[C@@H](Cc2ccccc2)C(=O)NCC(=O)N[C@@H]([C@@H](C)O)C(=O)N1)[C@@H](C)O)C(C)C)C(=O)N[C@@H](Cc1ccc(O)cc1)C(=O)N[C@@H](CCC(N)=O)C(=O)N[C@@H](Cc1ccccc1)C(=O)N[C@H](C(=O)N[C@@H](CC(=O)O)C(=O)N[C@@H](CCCCN)C(=O)N[C@@H](CC(=O)O)C(=O)N[C@@H](CCCCN)C(=O)N[C@@H](CC(=O)O)C(=O)N[C@@H](CC(N)=O)C(=O)N[C@H](C(=O)N[C@@H](C)C(=O)N1CCC[C@H]1C(=O)N[C@@H](CCCNC(=N)N)C(=O)N[C@@H](CO)C(=O)N[C@@H](CCCCN)C(=O)N[C@H](C(=O)N[C@@H](CO)C(=O)N1CCC[C@H]1C(=O)N[C@@H](CCC(N)=O)C(=O)NCC(=O)N[C@@H](Cc1ccc(O)cc1)C(N)=O)[C@@H](C)CC)C(C)C)[C@@H](C)O [ADM, adrenomedullin (human)]
duration of blood pressure reduction (normotensive Wistar rats): ≤ 4 h
time after which MABP had returned to base line levels (normotensive Wistar rats; subcutaneous, FIG. 1): about 3.5 hours
mean reduction of MABP at peak (normotensive Wistar rats; subcutaneous, one hour after administration, FIG. 1): ~20%

EC50 [3]: > 1000 nM
Molecule: O-{[(3-N-Methyl-amino-4-({(2R)-1-amino-3-[(2,5-dioxo-1-{3-oxo-3-[(2-{ω-methoxy-poly-oxyethylen[40 kDa]}ethyl)amino]propyl}pyrrolidin-3-yl)sulfanyl]-1-oxopropan-2-yl}amino)-4-oxobutyl]carbamoyl}-L-tyrosyl-adrenomedullin(2-52) [Example 2]
